Laboratory results taken from patent US20250223560A1, “NOX4 INHIBITOR COMPOSITIONS AND METHODS FOR REGENERATION OF DYSTROPHIC MUSCLE” (FULCRUM THERAPEUTICS, INC., priority 2022, published 2025).
pIC50: −log10 of the molar value. Read-outs that look alike come from different tables or passages of the source.

How the values were obtained:
mesenchymal stem cells = test: Phalloidin (F-actin) / alpha-SMA staining of treated mesenchymal stem cells; format: cell-based, human; conditions: 1 μM
Protocol: (§1) Bone Marrow Derived Mesenchymal Stem Cells, human (BM-MSC, ATCC PCS-500-012) were cultured in medium composed of Mesenchymal Stem Cell Basal Medium foe Adipose, Umbilcal and Bone Marrow-derived MSCs (ATCC PCS-400030 and Mesenchymal Stem Cell Growth for Bone Marrow-derived MSCs (ATCC PCS-500-041). Cells were seeded at a density of 15,000 cells/well in a 96-well format.
(§2) To induce fibrogenic differentiation BM-MSCs were cultured in a medium composed by Dulbecco's Modified Eagle Medium, 2% horse serum (HS) (Sigma H1270) and 5-10 ng/ml TGF-beta-1 (PreproTech 100-21). Cells were cultured in basal media for 2 days before being switched to fibrogenic differentiation media for 5 days, after which they were taken down for downstream assays. Compound treatment was added when media was switched to fibrogenic differentiation media, cells were treated with 0.1% DMSO if not receiving compound.
(§3) Cells were fixed in 4% PFA for 10 min at RT. Fixed cells were washed three times in 1×PBS and incubated in permeabilization solution (0.5% Triton X-100 in 1×PBS) for 10 min. Unspecific binding were saturated by incubating samples in blocking solution (5% donkey serum in 1×PBS) for 1 h. The cells were incubated at RT for 1 hour with gentle shaking in the presence of primary antibody against, alpha-smooth muscle actin (1:1000, Sigma™ A5228). The cells were washed three times with 0.05% Tween-20 in 1×PBS and incubated, for 1 hour at RT, with host-specific secondary antibodies in addition to counterstaining for Alexa Fluor Plus 750 Phalloidin (1:2000, Invitrogen™, A30105) and DAPI (1:2000). Primary and secondary antibodies were diluted according to the manufacturer's recommendations in blocking solution+0.1% Triton X-100. Finally, the cells were washed three times with 0.05% Tween-20 in 1×PBS, washed twice with 1×PBS and stored at 4° C. Images were acquired on a Thermo Scientific™ CellInsight™ CX7LED high content analysis (HCA) imaging instrument using a 10× objective. Nine fields per well were captured for quantification.

[1] = test system: Bone Marrow Derived Mesenchymal Stem Cells, human (BM-MSC); myofibroblast content; test: Myofibroblast reduction phenotype in TGF-beta-1 fibrogenic differentiation culture (high-content imaging); format: cell-based
Protocol: as §1, §2, §3
Columbus™ software (version 2.9.1, Perkin Elmer®) was used for analysis of acquired images. A custom analysis pipeline was constructed to quantify the percentage of myofibroblasts within the well. First, nuclei were segmented using “Method B” and intensity and morphology properties were calculated using standard settings. Second, viable nuclei were identified by gating on nuclei intensity, area, and roundness of the segmented objects. Next, a region of interest was then defined around the selected viable nuclei by expanding the outer boarder by […]. STAR morphology and SER texture properties were calculated within the region of interest for the alpha-smooth muscle actin and phalloidin channels using the following parameters: profile width=4 px, scale=1 px, Kernel normalization. The calculated morphology and texture properties were used to train a linear classifier consisting of two classes, myofibroblasts and mesenchymal stem cells, by selecting >100 objects in each negative control (DMSO) and positive control (fibrogenic differentiation media) conditions. The linear classifier was then applied to the untrained test wells using a batch analysis to calculate the percentage of myofibroblasts within each image using a formula output (myofibroblasts:number of objects/viable nuclei:number of objects)*100. Results were averaged across the nine fields imaged per well.
The initial six NOX4 inhibitors were assessed in replicate experiments for both potency of myofibroblast reducing activity and an associated IC50 for the myofibroblast reduction phenotype was determined (Table 1).

## CN(C)c1cccc(-c2c3c(=O)n(-c4ccccc4Cl)[nH]c3cc(=O)n2C)c1 [FTX1620, Setanaxib]
Mesenchymal stem cells
  phalloidin (F-actin) staining: significant phalloidin staining
Mesenchymal stem cells; FIG. 15
  α-SMA immunofluorescence and phalloidin (F-actin) staining: exhibited both α-SMA immunofluorescence and phalloidin (F-actin) staining
[1]; Homo sapiens, BMMSC, first experiment, read-out: IC50 Phenotype (myofibroblast reduction)
  pIC50: 7.11
[1]; Homo sapiens, BMMSC, replicate experiment, read-out: IC50 Phenotype Replicate
  pIC50: 6.90
[1]; replicate experiment, read-out: IC50 Phenotype Replicate
  pIC50: 6.90
[1]; treated cells in culture
  reduction of myofibroblast content (concentration-response): reduced the myofibroblast content of treated cells in a dose-responsive manner
